Laboratory results as given in patent US20150368616A1, “METHODS FOR INDUCTION OF CELL FATES FROM PLURIPOTENT CELLS” (THE CLEVELAND CLINIC FOUNDATION, priority 2013, published 2015).
Residues, ends and D or L forms follow the SMILES beside them. *: point of attachment. Cbz = O=C(OCc1ccccc1)*

Legend:
Ngn3 protein = Ngn3 protein stability and half-life in HepG2 cells, cycloheximide time course, Western blot; assay type: cell-based
From the text: I. Protein stability and half-life assessment of Ngn3 in HepG2 cells. HepG2 cells were transfected with pTRE2-Ngn3 and pCMV-rtTA, treated with Doxycycline for 24 hr, and on the subsequent day pre-exposed to the proteasomal inhibitor MG132 for 5 hr. At time t=0, protein synthesis was inhibited by cycloheximide (CHX). Western blot using anti-Ngn3 antibodies are shown; b-actin served as a control, and remains stable. MG132 treatment leads to Ngn3 protein accumulation at t=0, and strongly stabilizes the protein, which rapidly decays in non-treated cells. J. Experiment conducted similarly as in I, but CMV-driven versions of Notch1 and Notch2 intracellular domains (N1ICD, N2ICD respectively) (left), or dominant-negative mastermind-like1 (DN-MAML1) were co-transfected with pTRE2-Ngn3. The left-most blot is overexposed to reveal the lower level of accumulated Ngn3 protein in presence of N1ICD, N2ICD, and the loss of Ngn3 upon CHX treatment. The analysis was done 1 hr post CHX treatment. […] K. Mouse pancreatic E14.5 explants were subjected to short-term treatment of CHX (1 hr) and MG132 (5 hr pre, and post-culture) as indicated. Total protein was isolated and subjected to anti-Ngn3 Western blotting. Levels of Ngn3 increase in presence of MG132, and decrease in response to CHX. Ngn3 protein levels increase correspondingly in presence of DAPT, a condition where the protein remains stable (CHX+DAPT lane). L. Stability measurements of Ngn3 in the presence of various cellular regulatory proteins. The experiment was conducted as in I and J. Decay scans (right) provide a measure of the decay rate of Ngn3. In all cases, the t=0 Ngn3 levels prior to CHX treatment is paralleled by the relative half-life of the protein. Destabilizing conditions include N1ICD, N2ICD, and Hes1. Stabilizing conditions include DN-MAML1 and DAPT-treatment. […] Hes1 is able to destabilize Ngn3 in the presence of DN-MAML1.
While Hes1 is known to directly repress Ngn3 expression, this would be an insufficient explanation for the observed results in which Ngn3 was driven by a Pdx1-tTA;tetO governed system. […] As destabilization of other bHLH factors, including NGN, and hASH1 has been observed, which has also implicated Notch, we then tested if a similar mechanism might operate in pancreas. As a means to mechanistically address this question, we first determined if Ngn3 protein half-life was regulated by proteasomal activity. Using three different heterologous cell lines (HepG2, Hek293, and CHO) conditionally expressing Ngn3, we observed a rapid turnover of Ngn3 protein after cycloheximide (CHX) addition; conditions where the control protein, beta-Actin, remained stable (FIG. 34I and data not shown). […]

[1] = system: mouse WT pancreatic explants (E12.5); assay: Mouse WT pancreatic explants (E12.5) cultured 4 days with DAPT; staining and qRT-PCR; assay type: cell-based; conditions: for ductal cell development: 4 days
Protocol: […] Sections were stained against Mucin1, carboxypeptidase1 (CPA) and glucagon (Glu). C. qRT-PCR analysis of explants performed as in A, B. Pancreatic marker genes were assessed and fold-changes to WT explants treated with DMSO were calculated by DDct method, using GAPDH mRNA as internal standard.
Given that pancreatic ductal cells form in Ngn3 null mice, and because ductal genes have not been identified as direct Ngn3 targets, we set forth to determine if the cell-extrinsic mechanism involving Notch indeed was causal for the Ngn3 Delayed ON phenotype. We first tested if pancreatic ductal cell differentiation was dependent on Notch. We cultured WT pancreatic explants in the presence of DAPT (FIG. 35A, B, C). These experiments were based on E12.5 pancreas, as at that age, the majority of tip/trunk patterning has occurred, and cells are actively undergoing terminal fate decisions. These cultures developed significant numbers of Muc1+ ductal cells during culture in absence of DAPT (FIG. 35A), with a density exceeding that found in-vivo. Acinar cell development (CPA1+) proceeded in WT (FIG. 35A), albeit at a much reduced level compared to normal development. […] Given that Notch processing inhibition strongly affected cellular differentiation, we investigated this further by performing qRT-PCR on similar-type explants (FIG. 35C).

[2] = system: E12.5 Ngn3 Delayed ON pancreas; assay: Ngn3 Delayed ON pancreas (E12.5) explant culture 4 days with and without DAPT, immunofluorescence; assay type: cell-based, mouse; conditions: four days ex-vivo
From the text: D-K. Ngn3 Delayed ON pancreas (E12.5, doxycycline was provided at E7.5, E9.5 as in FIG. 2A) was isolated and subjected to 4 days of explant culture with and without DAPT as described in A,B. Immunofluorescence analyses of explant pancreas using select pancreatic markers, after 4 days in culture. D′: insert image showing the expression of glucagon.
Given that Dll1 and Hes1 were >2-fold increased in the E12.5 Ngn3 Delayed ON pancreas, we next asked to what degree Notch processing was also required for the enhanced Ngn3-mediated ductal cell formation in that model. Similar to above, microdissected E12.5 Ngn3 Delayed ON pancreas was cultured for four days ex-vivo with and without DAPT (FIG. 36D-K). In contrast to WT explants, Ngn3 Delayed ON pancreas developed in a quite similar manner as observed in-vivo; in addition to widespread ductal formation, glucagon-producing clusters were observed, and extremely few acinar cells were found (FIG. 36D, F, H). Similar results were obtained using staining for Hnf1β (data not shown). […] The Ngn3-mediated ductal cell formation was abrogated by DAPT treatment ([…]). […] We conclude that Notch signaling is required for both normal, as well as Ngn3-mediated, pancreatic ductal cell development, and that blocking this pathway promotes acinar and endocrine fates at the expense of ductal cells. Of note, at high levels of DAPT treatment, γ-secretase inhibition impacts endocrine subtype determination as well, and if a concomitant increase in Ngn3 protein is provided, the organ regains capacity for significant insulin-cell differentiation.

endogenous Ngn3 = assay: Mouse pancreatic E14.5 explants treated with CHX, MG132, DAPT; anti-Ngn3 Western blotting; assay type: cell-based; conditions: E14.5 mouse pancreatic explants, MG132 5 hr
From the text: I. Protein stability and half-life assessment of Ngn3 in HepG2 cells. HepG2 cells were transfected with pTRE2-Ngn3 and pCMV-rtTA, treated with Doxycycline for 24 hr, and on the subsequent day pre-exposed to the proteasomal inhibitor MG132 for 5 hr. At time t=0, protein synthesis was inhibited by cycloheximide (CHX). Western blot using anti-Ngn3 antibodies are shown; b-actin served as a control, and remains stable. MG132 treatment leads to Ngn3 protein accumulation at t=0, and strongly stabilizes the protein, which rapidly decays in non-treated cells. J. Experiment conducted similarly as in I, but CMV-driven versions of Notch1 and Notch2 intracellular domains (N1ICD, N2ICD respectively) (left), or dominant-negative mastermind-like1 (DN-MAML1) were co-transfected with pTRE2-Ngn3. The left-most blot is overexposed to reveal the lower level of accumulated Ngn3 protein in presence of N1ICD, N2ICD, and the loss of Ngn3 upon CHX treatment. The analysis was done 1 hr post CHX treatment. […]
While Hes1 is known to directly repress Ngn3 expression, this would be an insufficient explanation for the observed results in which Ngn3 was driven by a Pdx1-tTA;tetO governed system. […] As a means to mechanistically address this question, we first determined if Ngn3 protein half-life was regulated by proteasomal activity. […]

[3] = system: forward differentiating hES culture; assay: Two stage protocol: Pan-CM 8 days then second stage medium with MG132, DAPT, forskolin, sodium propionate; transcript analysis; assay type: cell-based, human; conditions: 8 days Pan-CM then second stage medium
Protocol: As a means to optimize the differentiation of insulin producing cells a two stage protocol was used in which pluripotent cultures were incubated in the presence of Pan-CM for 8 days as a means of generating pancreatic precursors cellular population. The medium these cultures were incubated in were subsequently changed to a medium designed to enhance differentiation of a pancreatic precursor towards a beta-cell terminal fate. All second stage experiments were performed in a medium composed of DMEM/F12 containing 12 mM Glucose supplemented with 1% B27, 1% Pyruvate, 1 uM Alk5 Inh II, 500 ng/ml Noggin and 0.5 uM (1,25 OH2)-Vit D3.
Among the compounds assayed for the ability to increase insulin production in a forward differentiating culture was the proteosomal inhibitor MG132 which we used in the previous example to stabilize Ngn3 protein. We also included the gamma secretase inhibitor DAPT, which was shown in the previous example to greatly increase beta-cell formation in the developing embryonic pancreatic explant study. We also included the short fatty acid salt sodium propionate, which acts as an agonist of short-chain fatty acid receptors. We also included the adenylyl cyclase activator forskolin. We also included the nuclear hormone receptor agonist 1,25 (OH)2)-Vit D3, which binds to, and activates the VDR protein. We also used intermediate concentrations of glucose, shown by others to increase formation of insulin producing cells from pluripotent derivatives. These compounds were used individually or in combination (as outlined in FIG. 37 panel A) to increase insulin-producing endocrine cell formation in a short term Pan-CM treated forward differentiating hES culture system.

[4] = system: Forward differentiating hES cultures; assay: Pan-CM two weeks then maturation medium with daily MG132 pulse, transcript analysis; assay type: cell-based, human
Protocol: To successfully differentiate an insulin producing cell a two stage approach was developed. Schematically represented in panel A, pluripotent cultures were treated with Pan-CM for two weeks followed by a switch to a maturation medium (abbreviated MM within panel B) composed of DMEM/F12 with 12 mM glucose supplemented with 5 uM DAPT, 0.5 uM Vit D3, 1% B27, 1 uM Alk 5 Inhibitor and 1 mM Sodium Propionate. In addition cultures were treated with the proteasome inhibitor MG132 at 10 uM for a 4 hour pulse daily for the length of the experiment. We have previously shown that MG132 mediated inhibition of protein degradation promotes sustained Ngn3 signaling resulting in increased endocrine differentiation. […] Substantial increases in several of the endocrine specific genes are observed.
Forward differentiating hES cultures were incubated for two weeks in the presence of Pan-CM at which time culture conditions were changed to a defined maturation medium in addition to being treated daily with MG132. Control cultures remained within Pan-CM for the entire duration of the experiment. […] Transcript levels of Slc30A8, a gene associated with the transport of zinc during the processing of insulin, were increased ˜200 fold when forward differentiating cultures were exposed to MG132. […] It is important to note that while the absolute Glucagon transcript level fold increase was greater than that of insulin, when comparing the effects of forward differentiating cultures treated with Mg132 as to those which were solely treated with Pan-CM there was an ˜5 fold greater increase in relative Glucagon transcript levels as compared to an ˜24 fold greater increase in Insulin transcript levels. […] A similar low increase was also noted for the intestinal specific transcripts Cdx2 and Gucy2c genes, with only an ˜15 and ˜30 fold increase over hES transcript levels.
Also it is important to note that while all of the transcripts assayed throughout this series of experiments were increased in the cultures treated with MG132 the increase in pancreas specific transcripts was always far greater than the increases observed in non-pancreas specific transcripts (i.e., transcripts representative of the liver and intestines).

[5] = two weeks Pan-CM then maturation medium, MG132 daily

## C[C@H](NC(=O)Cc1cc(F)cc(F)c1)C(=O)N[C@H](C(=O)OC(C)(C)C)c1ccccc1 [DAPT, N—[N-(3,5-Diflurophenacetyl-L-alanyl)]-S-phenylglycine t-Butyl Ester]
Ngn3 protein; HepG2 cells, DAPT at 50 μM
  total Ngn3 protein levels and stability: increase in total Ngn3 protein levels
[1]; 100 μM DAPT
  ductal cell development: fully abolished
[1]; 100 μM DAPT, qRT-PCR
  Gcg expression: reduced
  Ins1, Ins2 expression: further enhanced
[1]; 25-50 μM DAPT
  ductal cell development: significantly reduced
[1]; qRT-PCR
  Ngn3, NeuroD1, Nkx6.1 expression: dose-dependent increases
  Sox9 expression: Sox9 expression was reduced
  acinar gene expression (Cpa1, Cpa2, Ptf1a): strongly promoted
[2]
  Ngn3-mediated ductal cell formation: abrogated
  Pdx1+/Ins+ endocrine cells: numerous
  acinar density (CPA1+ cells): much increased
  glucagon-expressing cells: correspondingly reduced

## CC(C)C[C@@H](C=O)NC(=O)[C@H](CC(C)C)NC(=O)[C@H](CC(C)C)NC(=O)OCc1ccccc1 [MG132, benzyl (S)-4-methyl-1-((S)-4-methyl-1-((S)-4-methyl-1-oxopentan-2-ylamino)-1-oxopentan-2-ylamino)-1-oxopentan-2-ylcarbamate] (Cbz-Leu-Leu-Leu-aldehyde)
Ngn3 protein; HepG2 cells exposed to MG132, CHX time course
  half-life of Ngn3 (T1/2): > 3 h
Endogenous Ngn3
  loss of endogenous Ngn3 following exposure to CHX: abrogated
[3]
  Glucagon transcript levels: remaining approximately the same as controls
  Hnf6 transcript increase: ~90 fold
  Insulin transcript levels increase over controls: ~80 fold
  Nkx6.1 transcript increase: ~12.5 fold
  Pdx1 transcript increase: ~40 fold
[4]
  AFP transcript increase: ~85 fold
  Albumin transcript increase: ~50 fold
  Cdx2 increase over hES transcript levels: ~15 fold
  Glucagon transcript increase compared to cultures solely treated with Pan-CM: ~5 fold
  Gucy2c increase over hES transcript levels: ~30 fold
  Insulin transcript increase compared to cultures solely treated with Pan-CM: ~24 fold
[4]; forward differentiating culture
  effect of long incubations on the culture: overall detrimental effect on the culture
[4]; [5]
  Glucagon absolute relative level over hES levels: ~2000 fold
  Insulin absolute relative level over hES levels: ~600 fold
  Mafa relative increase over control conditions: ~200 fold
  Pax4 relative increase over control conditions: ~300 fold
  Slc30A8 transcript levels increase: ~200 fold

B1: Ngn3: pro-endocrine bHLH factor, 214 amino acids (protein, UniProt Q9Y4Z2 1-214, looked up)
chain: MTPQPSGAPTVQVTRETERSFPRASEDEVTCPTSAPPSPTRTRGNCAEAEEGGCRGAPRKLRARRGGRSRPKSELALSKQRRSRRKKANDRERNRMHNLNSALDALRGVLPTFPDDAKLTKIETLRFAHNYIWALTQTLRIADHSLYALEPPAPHCGELGSPGGSPGDWGSLYSPVSQAGSLSPAASLEERPGLLGATFSACLSPGSLAFSDFL
modifications: full-length
notes: pro-endocrine bHLH factor, 214 amino acids
Ngn3 protein; HepG2 cells co-expressing N1ICD or N2ICD
  half-life of Ngn3 (T1/2): < 15 ′
Ngn3 protein; HepG2 cells, CHX time course, non-treated
  half-life of Ngn3 (T1/2): ~30 ′
